Measurements from article PMC11217338 (Frontiers in Endocrinology, 2024).

Target: T1, rat PXR (rPXR) (Rattus norvegicus, UniProt Q9R1A7)
T1 construct: gene Nr1i2
T1 sequence (Q9R1A7 143-431 limits assumed): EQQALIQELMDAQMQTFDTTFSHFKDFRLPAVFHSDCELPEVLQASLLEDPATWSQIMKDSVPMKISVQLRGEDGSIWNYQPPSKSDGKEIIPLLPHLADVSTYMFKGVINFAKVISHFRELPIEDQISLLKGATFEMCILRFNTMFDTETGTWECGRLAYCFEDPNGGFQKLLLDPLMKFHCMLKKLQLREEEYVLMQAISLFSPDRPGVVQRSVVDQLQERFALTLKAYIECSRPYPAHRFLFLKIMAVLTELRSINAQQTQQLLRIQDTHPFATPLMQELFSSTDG
Experiment: GAL4-LBD luciferase reporter assay in HepG2 cells, […] CBD
Assay type: cell-based

## C=C(C)[C@@H]1CCC(C)=C[C@H]1c1c(O)cc(CCCCC)cc1O [CBD, Cannabidiol]
  GAL4-LBD luciferase reporter assay in HepG2 cells, 10 μM CBD: Except for PXRs, CBD had little effect on activation of the other tested nuclear receptors
